Assay results as given in patent US6995143B2, “Macrolides with antibacterial activity” (Basilea Pharmaceutica AG, priority 2002, dated 2006).
In brackets after ≈: the same amount, converted by molar mass.

Columns and labels:
Format in all cases: cell-based
[1] = system: Streptococcus pneumoniae l/l; test: MIC, standard microdilution technique
Summary of the method: (§1)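 Susceptibility testing used the NCCLS fifth-edition approved standard for aerobic organisms (M7-A5).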

[2] = system: Staphylococcus aureus 1086; test: MIC, standard microdilution technique
Summary of the method: as §1

[3] = system: Streptococcus pneumoniae ¼; test: MIC, standard microdilution technique
Summary of the method: as §1

[4] = system: Escherichia coli ATCC 25922; test: MIC, standard microdilution technique
Summary of the method: as §1

[5] = system: Streptococcus pneumoniae SL199T; test: MIC, standard microdilution technique
Summary of the method: as §1

[6] = system: Staphylococcus aureus ATCC 29213; test: MIC, standard microdilution technique
Summary of the method: as §1

[7] = system: Streptococcus pneumoniae 12288; test: MIC, standard microdilution technique
Summary of the method: as §1

[8] = system: Staphylococcus aureus 745; test: MIC, standard microdilution technique
Summary of the method: as §1

[9] = system: Haemophilus influenzae QK12/87; test: MIC, standard agar dilution method using HTM medium
Summary of the method: (§2)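 The reported MIC comes from dilution testing done to NCCLS guidance M7-A5. Organism: Haemophilus influenzae.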

[10] = system: Haemophilus influenzae QK50; test: as above
Summary of the method: as §2

[11] = system: Haemophilus influenzae B1501; test: as above
Summary of the method: as §2

[12] = system: Haemophilus influenzae 12214; test: as above
Summary of the method: as §2

CC[C@H]1OC(=O)[C@H](C)C(=O)[C@H](C)[C@@H](O[C@@H]2O[C@H](C)C[C@H](N(C)C)[C@H]2O)[C@](C)(OC)C[C@@H](C)C(=O)[C@H](C)[C@H]2[C@@H](SCCS(=O)(=O)NCc3ccccc3)C(=O)O[C@@]21C [Example 24]
minimum inhibitory concentration (MIC), Strain E [1]: <=0.06 μg/ml | minimum inhibitory concentration (MIC), Strain B [2]: 1 µg/mL (≈ 1.19 µM) | minimum inhibitory concentration (MIC), Strain F [3]: >32 µg/mL | minimum inhibitory concentration (MIC), Strain D [4]: >32 µg/mL | minimum inhibitory concentration (MIC), Strain G [5]: 32 µg/mL (≈ 38 µM) | minimum inhibitory concentration (MIC), Strain A [6]: 2 µg/mL (≈ 2.38 µM) | minimum inhibitory concentration (MIC), Strain H [7]: >32 µg/mL | minimum inhibitory concentration (MIC), Strain C [8]: >32 µg/mL | minimum inhibitory concentration (MIC), Strain I [9]: 32 µg/mL (≈ 38 µM) | minimum inhibitory concentration (MIC), Strain L [10]: >32 µg/mL | minimum inhibitory concentration (MIC), Strain M [11]: 32 µg/mL (≈ 38 µM) | minimum inhibitory concentration (MIC), Strain K [12]: >32 µg/mL

CC[C@H]1OC(=O)[C@H](C)C(=O)[C@H](C)[C@@H](O[C@@H]2O[C@H](C)C[C@H](N(C)C)[C@H]2O)[C@](C)(OC)C[C@@H](C)C(=O)[C@H](C)[C@H]2[C@@H](SCCNS(=O)(=O)c3cccc4cccnc34)C(=O)O[C@@]21C [Example 29]
minimum inhibitory concentration (MIC), Strain E [1]: <=0.06 μg/ml | minimum inhibitory concentration (MIC), Strain B [2]: <=0.06 μg/ml | minimum inhibitory concentration (MIC), Strain F [3]: >32 µg/mL | minimum inhibitory concentration (MIC), Strain D [4]: >32 µg/mL | minimum inhibitory concentration (MIC), Strain G [5]: 2 µg/mL (≈ 2.28 µM) | minimum inhibitory concentration (MIC), Strain A [6]: <=0.06 μg/ml | minimum inhibitory concentration (MIC), Strain H [7]: >32 µg/mL | minimum inhibitory concentration (MIC), Strain C [8]: >32 µg/mL | minimum inhibitory concentration (MIC), Strain I [9]: 8 µg/mL (≈ 9.11 µM) | minimum inhibitory concentration (MIC), Strain L [10]: 8 µg/mL (≈ 9.11 µM) | minimum inhibitory concentration (MIC), Strain M [11]: 8 µg/mL (≈ 9.11 µM) | minimum inhibitory concentration (MIC), Strain K [12]: 8 µg/mL (≈ 9.11 µM)

CC[C@H]1OC(=O)[C@H](C)C(=O)[C@H](C)[C@@H](O[C@@H]2O[C@H](C)C[C@H](N(C)C)[C@H]2O)[C@](C)(OC)C[C@@H](C)C(=O)[C@H](C)[C@H]2[C@@H](SCCNc3nc(C)nc4ccc(Br)cc34)C(=O)O[C@@]21C [Example 52]
minimum inhibitory concentration (MIC), Strain E [1]: <=0.06 μg/ml | minimum inhibitory concentration (MIC), Strain B [2]: <=0.06 μg/ml | minimum inhibitory concentration (MIC), Strain F [3]: 0.125 µg/mL (≈ 0.138 µM) | minimum inhibitory concentration (MIC), Strain D [4]: >32 µg/mL | minimum inhibitory concentration (MIC), Strain G [5]: 4 µg/mL (≈ 4.41 µM) | minimum inhibitory concentration (MIC), Strain A [6]: 0.125 µg/mL (≈ 0.138 µM) | minimum inhibitory concentration (MIC), Strain H [7]: 8 µg/mL (≈ 8.81 µM) | minimum inhibitory concentration (MIC), Strain C [8]: >32 µg/mL | minimum inhibitory concentration (MIC), Strain I [9]: 8 µg/mL (≈ 8.81 µM) | minimum inhibitory concentration (MIC), Strain L [10]: 8 µg/mL (≈ 8.81 µM) | minimum inhibitory concentration (MIC), Strain M [11]: 8 µg/mL (≈ 8.81 µM) | minimum inhibitory concentration (MIC), Strain K [12]: 16 µg/mL (≈ 17.6 µM)

CC[C@H]1OC(=O)[C@@](C)(F)C(=O)[C@H](C)[C@@H](O[C@@H]2O[C@H](C)C[C@H](N(C)C)[C@H]2O)[C@](C)(OC)C[C@@H](C)C(=O)[C@H](C)[C@H]2[C@@H](S(=O)(=O)CCCn3cnc4c(N)ncnc43)C(=O)O[C@@]21C [Example 58]
minimum inhibitory concentration (MIC), Strain E [1]: <=0.06 μg/ml | minimum inhibitory concentration (MIC), Strain B [2]: 0.5 µg/mL (≈ 0.575 µM) | minimum inhibitory concentration (MIC), Strain F [3]: <=0.06 μg/ml | minimum inhibitory concentration (MIC), Strain D [4]: >32 µg/mL | minimum inhibitory concentration (MIC), Strain G [5]: 0.5 µg/mL (≈ 0.575 µM) | minimum inhibitory concentration (MIC), Strain A [6]: 0.5 µg/mL (≈ 0.575 µM) | minimum inhibitory concentration (MIC), Strain H [7]: 8 µg/mL (≈ 9.21 µM) | minimum inhibitory concentration (MIC), Strain C [8]: >32 µg/mL | minimum inhibitory concentration (MIC), Strain I [9]: 4 µg/mL (≈ 4.6 µM) | minimum inhibitory concentration (MIC), Strain L [10]: 4 µg/mL (≈ 4.6 µM) | minimum inhibitory concentration (MIC), Strain M [11]: 4 µg/mL (≈ 4.6 µM) | minimum inhibitory concentration (MIC), Strain K [12]: 4 µg/mL (≈ 4.6 µM)

CC[C@H]1OC(=O)[C@H](C)C(=O)[C@H](C)[C@@H](O[C@@H]2O[C@H](C)C[C@H](N(C)C)[C@H]2O)[C@](C)(OC)C[C@@H](C)C(=O)[C@H](C)[C@H]2[C@@H](SCC(=O)NCc3nc4ccccc4s3)C(=O)O[C@@]21C [Example 34]
minimum inhibitory concentration (MIC), Strain E [1]: <=0.06 μg/ml | minimum inhibitory concentration (MIC), Strain B [2]: 0.5 µg/mL (≈ 0.59 µM) | minimum inhibitory concentration (MIC), Strain F [3]: 8 µg/mL (≈ 9.43 µM) | minimum inhibitory concentration (MIC), Strain D [4]: >32 µg/mL | minimum inhibitory concentration (MIC), Strain G [5]: >32 µg/mL | minimum inhibitory concentration (MIC), Strain A [6]: 0.25 µg/mL (≈ 0.295 µM) | minimum inhibitory concentration (MIC), Strain H [7]: >32 µg/mL | minimum inhibitory concentration (MIC), Strain C [8]: >32 µg/mL | minimum inhibitory concentration (MIC), Strain I [9]: 32 µg/mL (≈ 37.7 µM) | minimum inhibitory concentration (MIC), Strain L [10]: >32 µg/mL | minimum inhibitory concentration (MIC), Strain M [11]: 32 µg/mL (≈ 37.7 µM) | minimum inhibitory concentration (MIC), Strain K [12]: >32 µg/mL

CC[C@H]1OC(=O)[C@H](C)C(=O)[C@H](C)[C@@H](O[C@@H]2O[C@H](C)C[C@H](N(C)C)[C@H]2O)[C@](C)(OC)C[C@@H](C)C(=O)[C@H](C)[C@H]2[C@@H](SCCNC(=O)c3cnc4ccccc4c3)C(=O)O[C@@]21C (single isomer, unassigned) [Example 27, (3R or S, 3aR, 4R or S, 6R, 8R, 9R, 10R, 12R, 15R, 15aS)-15-Ethyloctahydro-8-methoxy-4,6,8,10,12,15a-hexamethyl-3-[[2-[(3-quinolinylcarbonyl)amino]ethyl]thio]-9-[[3,4,6-trideoxy-3-(dimethylamino)-β-D-xylo-hexopyranosyl]oxy]-2H-furo [2,3-c] oxacyclotetradecin-2,5,11,13 (3H,6H,12H)-tetrone]
MIC ([1]; read-out: minimum inhibitory concentration (MIC), Strain E): ≤ 0.06 µg/mL | MIC ([2]; read-out: minimum inhibitory concentration (MIC), Strain B): ≤ 0.06 µg/mL | MIC ([3]; read-out: minimum inhibitory concentration (MIC), Strain F): 8 µg/mL (≈ 9.5 µM) | MIC ([4]; ATCC25922, read-out: minimum inhibitory concentration (MIC), Strain D): > 32 µg/mL | MIC ([5]; read-out: minimum inhibitory concentration (MIC), Strain G): 8 µg/mL (≈ 9.5 µM) | MIC ([6]; ATCC29213, read-out: minimum inhibitory concentration (MIC), Strain A): ≤ 0.06 µg/mL | MIC ([7]; read-out: minimum inhibitory concentration (MIC), Strain H): > 32 µg/mL | MIC ([8]; read-out: minimum inhibitory concentration (MIC), Strain C): > 32 µg/mL | MIC ([9]; read-out: minimum inhibitory concentration (MIC), Strain I): 16 µg/mL (≈ 19 µM) | MIC ([10]; read-out: minimum inhibitory concentration (MIC), Strain L): 16 µg/mL (≈ 19 µM) | MIC ([11]; read-out: minimum inhibitory concentration (MIC), Strain M): 8 µg/mL (≈ 9.5 µM) | MIC ([12]; read-out: minimum inhibitory concentration (MIC), Strain K): 16 µg/mL (≈ 19 µM)

CC[C@H]1OC(=O)[C@H](C)C(=O)[C@H](C)[C@@H](O[C@@H]2O[C@H](C)C[C@H](N(C)C)[C@H]2O)[C@](C)(OC)C[C@@H](C)C(=O)[C@H](C)[C@H]2[C@@H](SCC(=O)N3CCc4ccccc43)C(=O)O[C@@]21C [Example 18]
minimum inhibitory concentration (MIC), Strain E [1]: <=0.06 μg/ml | minimum inhibitory concentration (MIC), Strain B [2]: 0.25 µg/mL (≈ 0.311 µM) | minimum inhibitory concentration (MIC), Strain F [3]: 2 µg/mL (≈ 2.49 µM) | minimum inhibitory concentration (MIC), Strain D [4]: >32 µg/mL | minimum inhibitory concentration (MIC), Strain G [5]: 16 µg/mL (≈ 19.9 µM) | minimum inhibitory concentration (MIC), Strain A [6]: 0.25 µg/mL (≈ 0.311 µM) | minimum inhibitory concentration (MIC), Strain H [7]: >32 µg/mL | minimum inhibitory concentration (MIC), Strain C [8]: >32 µg/mL | minimum inhibitory concentration (MIC), Strain I [9]: 8 µg/mL (≈ 9.96 µM) | minimum inhibitory concentration (MIC), Strain L [10]: 8 µg/mL (≈ 9.96 µM) | minimum inhibitory concentration (MIC), Strain M [11]: 8 µg/mL (≈ 9.96 µM) | minimum inhibitory concentration (MIC), Strain K [12]: 8 µg/mL (≈ 9.96 µM)

CC[C@H]1OC(=O)[C@H](C)C(=O)[C@H](C)[C@@H](O[C@@H]2O[C@H](C)C[C@H](N(C)C)[C@H]2O)[C@](C)(OC)C[C@@H](C)C(=O)[C@H](C)[C@H]2[C@@H](SCC(=O)NCc3ncc[nH]3)C(=O)O[C@@]21C [Example 35]
minimum inhibitory concentration (MIC), Strain E [1]: <=0.06 μg/ml | minimum inhibitory concentration (MIC), Strain B [2]: 8 µg/mL (≈ 10.2 µM) | minimum inhibitory concentration (MIC), Strain F [3]: >32 µg/mL | minimum inhibitory concentration (MIC), Strain D [4]: >32 µg/mL | minimum inhibitory concentration (MIC), Strain G [5]: 16 µg/mL (≈ 20.5 µM) | minimum inhibitory concentration (MIC), Strain A [6]: 8 µg/mL (≈ 10.2 µM) | minimum inhibitory concentration (MIC), Strain H [7]: >32 µg/mL | minimum inhibitory concentration (MIC), Strain C [8]: >32 µg/mL | minimum inhibitory concentration (MIC), Strain I [9]: 16 µg/mL (≈ 20.5 µM) | minimum inhibitory concentration (MIC), Strain L [10]: 16 µg/mL (≈ 20.5 µM) | minimum inhibitory concentration (MIC), Strain M [11]: 16 µg/mL (≈ 20.5 µM) | minimum inhibitory concentration (MIC), Strain K [12]: 32 µg/mL (≈ 41 µM)
